# Source: publication PMC11440508, “Dually Labeled Neurotensin NTS1R Ligands for Probing Radiochemical and Fluorescence-Based Binding Assays” (Journal of Medicinal Chemistry, 2024)
# What was measured:
# [1] = Stability in human plasma/PBS 1:2 v/v; type: in vitro ADME; conditions: for % intact compound in plasma: 37 °C; for % intact compound in plasma / remaining at 24 h, 80 μM: 24 h
# Experimental: The proteolytic stabilities of 13 and 18 were investigated in human blood plasma/PBS (136.9 mM NaCl, 2.68 mM KCl, 5.62 mM Na2HPO4, 1.09 mM NaH2PO4, and 1.47 mM KH2PO4, pH 7.4) 1:2 v/v according to a described procedure[38] with the following modifications: 5 mM stock solutions in EtOH/10 mM aqueous HCl 1:1 v/v were used for the addition of the peptides to plasma/PBS 1:2 v/v. As the RP-HPLC purity of 1-methyl-D-Trp, used as internal standard (IS), was <95%, the compound was purified by preparative HPLC to give a purity of >99%. The concentration of the peptides in plasma/PBS 1:2 v/v was 40 μM (recovery determination) or 80 μM (stability tests). Samples were analyzed using the same RP-HPLC system and conditions as described under Analytical HPLC with the following gradient: 0–6 min: acetonitrile/0.04% aqueous TFA 10:90–21:79, 6–12 min: 21:79–40:60, 12–13 min: 40:60–95:5, 13–16 min: 95:5 (isocratic). Data analysis was based on UV detection at 220 nm. Reference samples, representing 100% recovery, were prepared in quadruplicate. Recovery ratios were obtained by dividing the recovery of the peptide by the recovery of IS for each individual sample (n = 4). The obtained recoveries and the recovery ratios are summarized in Table S2, Supporting Information.
# NTS1R [2] = target: T1, NTS1R (Homo sapiens, UniProt P30989); assay: Fluorescence anisotropy (FA) equilibrium saturation binding at hNTS1R-displaying BBVs; set-up: NlucC (C-terminal fragment of nanoluciferase, 11 amino acids) (C); made in house; host or cells: Sf9 insect cells, baculovirus (pIMACE-CMVintP10-hNTS1R-Nluc, DH10MultiBac); budded baculovirus particles; conditions: NTS1R-BBV, 27 °C
# T1 sequence (P30989 whole entry, the tested form may be a part): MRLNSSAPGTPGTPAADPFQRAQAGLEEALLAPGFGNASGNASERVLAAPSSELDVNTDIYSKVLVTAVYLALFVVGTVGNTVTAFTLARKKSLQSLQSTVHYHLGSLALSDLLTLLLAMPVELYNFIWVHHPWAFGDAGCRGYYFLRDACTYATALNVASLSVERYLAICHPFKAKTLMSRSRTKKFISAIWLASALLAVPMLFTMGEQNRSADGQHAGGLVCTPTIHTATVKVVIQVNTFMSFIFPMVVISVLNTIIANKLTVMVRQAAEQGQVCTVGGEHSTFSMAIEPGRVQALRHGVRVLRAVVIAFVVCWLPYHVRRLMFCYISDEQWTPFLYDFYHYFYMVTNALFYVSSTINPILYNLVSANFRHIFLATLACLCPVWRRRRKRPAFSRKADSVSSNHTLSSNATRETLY
# Experimental: FA-based NTS1R binding studies with 13 and 18 were performed at hNTS1R displaying budded baculovirus particles (termed BBVs below), which were obtained from Sf9 insect cells following the procedure reported for the preparation of neuropeptide Y Y1R displaying BBVs.[61] The obtained viruses were collected by centrifugation at 1600g for 10 min, and the virus titer was determined with an image-based cell-size estimation assay as described elsewhere.[62] The viruses were amplified using a multiplicity of infection (MOI) between 0.01 and 0.1 until a high-titer baculovirus stock (virus concentration of at least 1.0 × 10^8 infectious viral particles/mL) was acquired. To produce BBV preparations with a high receptor density, Sf9 cells with a density of 1.9 × 10^6 cells/mL were infected with an MOI of 3 and the BBVs were collected by centrifugation 63 h after the infection, when the cell viability was <30%. […]
# (§1) FA measurements were performed with a Synergy NEO multimode plate reader (BioTek, Winooski, VT) and black, half area, flat bottom polystyrene nonbinding surface (NBS) 96-well plates (product no. 3993; Corning, Corning, NY). Polarizing excitation (530 ± 15 nm) and dual emission (590 ± 17.5 nm) filters with a dichroic mirror were used, allowing the simultaneous detection of parallelly and perpendicularly polarized fluorescence emission after polarizing beam splitter. […]
# NTS1R [3] = target: T1, NTS1R; assay: Fluorescence anisotropy (FA) association and dissociation kinetics at hNTS1R-displaying BBVs; type: binding; set-up: NlucC (C-terminal fragment of nanoluciferase, 11 amino acids) (C); made in house; host or cells: Sf9 insect cells, baculovirus (pIMACE-CMVintP10-hNTS1R-Nluc, DH10MultiBac); budded baculovirus particles; conditions: NTS1R-BBV, 27 °C; for kon: from model fit, read-out: kon [min^–1 nM^–1] (converted); for koff: read-out: koff [min^–1] (converted)
# Experimental: FA-based NTS1R binding studies with 13 and 18 were performed at hNTS1R displaying budded baculovirus particles (termed BBVs below), which were obtained from Sf9 insect cells following the procedure reported for the preparation of neuropeptide Y Y1R displaying BBVs.[61] The obtained viruses were collected by centrifugation at 1600g for 10 min, and the virus titer was determined with an image-based cell-size estimation assay as described elsewhere.[62] The viruses were amplified using a multiplicity of infection (MOI) between 0.01 and 0.1 until a high-titer baculovirus stock (virus concentration of at least 1.0 × 10^8 infectious viral particles/mL) was acquired. To produce BBV preparations with a high receptor density, Sf9 cells with a density of 1.9 × 10^6 cells/mL were infected with an MOI of 3 and the BBVs were collected by centrifugation 63 h after the infection, when the cell viability was <30%. The BBVs were concentrated 40-fold by centrifugation at 48,000g at 4 °C for 40 min, washed with ice-cold DPBS (without supplements), resuspended, and homogenized using a 0.3 mm diameter needle (Sterican, B. Braun, Melsungen, Germany). Aliquots of the BBV preparations were stored at −90 °C until use.
# as §1, with “splitter. All measurements were performed at 27 °C. For all experiments, DPBS2 was used as binding buffer.” for “splitter.”
# 25 μL of a 4-fold concentrated (compared to the final concentration) solution of 13 or 18 (final concentrations were 0.3 and 1 nM for both ligands) and 25 μL of DPBS2 were premixed in the 96-well plate followed by the addition of 50 μL of BBV suspension (used in six different concentrations; each was combined with the two ligand concentrations) to start the association. […] This enabled shorter time intervals between the read cycles (the measuring time for one cycle, comprising 4 wells, was 6 s; 100 read cycles were carried out). […] Immediately after the addition of SR142948, FA signals were measured for 10 min (within this time period, the dissociation was complete and a plateau was reached, respectively). Equilibrium binding was analyzed using the FA signals at 10 min. Fluorescence intensities were processed as previously reported[61] using the in-house developed software Aparecium 2.0.20 (http://www.gpcr.ut.ee/software.html).[63] […]
# [4] = human blood plasma/PBS 1:2 v/v, pH 7.4, 37 °C, read-out: % intact compound in plasma
SMILES,% intact compound in plasma [1],"remaining at 0.5 h, 80 μM ([1]; human blood plasma/PBS 1:2 v/v, pH 7.4, 37 °C, 30 min, read-out: % intact compound in plasma)","remaining at 2 h, 80 μM [1, 4]","remaining at 6 h, 80 μM [1, 4]","remaining at 24 h, 80 μM [1, 4]","remaining at 48 h, 80 μM [1, 4]",Kd (NTS1R [2]),kon (NTS1R [3]),koff (NTS1R [3])
"CCC(=O)NCCCCNC(=O)N=C(N)NCCC[C@H](NC(=O)[C@@H]1CCCN1C(=O)[C@@H](NC(=O)CCc1cn(CCCNC(=O)c2ccc(-c3c4ccc(=[N+](C)C)cc-4oc4cc(N(C)C)ccc34)c(C(=O)[O-])c2)nn1)C1CCNCC1)C(=O)N[C@@H](CCCNC(=N)N)C(=O)N1CCC[C@H]1C(=O)N[C@@H](Cc1ccc(O)cc1)C(=O)N[C@H](C(=O)N[C@@H](CC(C)C)C(=O)O)[C@@H](C)CC [Compound 13, N^α-(3-(1-N-((1-Carboxylato-2-(6-(dimethylamino)-3-(dimethyliminio)-3H-xanthen-9-yl)phen-5-yl)1-oxomethyl)aminoprop-3-yl-1H-1,2,3-triazol-4-yl)propanoyl)-2-(piperidin-4-yl)-Gly-Pro-N^ω-[(4-(N-propanoyl)aminobutyl)aminocarbonyl]Arg-Arg-Pro-Tyr-Ile-Leu Tris(hydrotrifluoroacetate)]",> 50%,> 99%,> 99%,> 99%,86 ± 4%,58 ± 5%,1.3 ± 0.1 nM,1.67e+07 M⁻¹ s⁻¹,0.0102 s⁻¹
"CCC(=O)NCCCCNC(=O)NC(=N)NCCC[C@H](NC(=O)[C@@H]1CCCN1C(=O)[C@@H](NC(=O)CCc1cn(CCCNC(=O)CCC#Cc2ccc3c(c2)C(C)(C)C2=C4C=C5C6=[N+](CCC5OC4CCN23)c2ccc(S(=O)(=O)[O-])cc2C6(C)C)nn1)C1CCNCC1)C(=O)N[C@@H](CCCNC(=N)N)C(=O)N1CCC[C@H]1C(=O)N[C@H](C(=O)N[C@H](C(=O)N[C@@H](CC(C)C)C(=O)O)[C@@H](C)CC)C(C)(C)c1ccc(O)cc1 (stereo partly drawn) [Compound 18, N^α-(3-(N-(1-(8-Sulfonato-5,5,27,27-tetramethyl-16-oxa-20-aza-12-azoniaheptacyclo[15.11.0.03,15.04,12.06,11.020,28.021,26]octacosa-1(28),2,4(12),6(11),7,9,21(26),22,24-nonaen-24-yl)-5-oxopentyn-5-yl)-1-aminoprop-3-yl-1H-1,2,3-triazol-4-yl)propanoyl)-2-(piperidin-4-yl)-Gly-Pro-N^ω-[(4-(N-propanoyl)aminobutyl)aminocarbonyl]Arg-Arg-Pro-β,β-dimethyl-L-Tyr-Ile-Leu Tris(hydrotrifluoroacetate)]",> 50%,,95 ± 6%,90 ± 6%,82 ± 4%,52 ± 4%,1.5 ± 0.1 nM,2.33e+07 M⁻¹ s⁻¹,0.00933 s⁻¹
